# Substitutions are numbered along the chain they refer to.
# B1: GIP55G, extended 55-amino-acid GIP isoform encoded by the derived G-44394131 allele (G103) (ligand)
# peptide: YAEGTFISDYSIAMDKIHQQDFVNWLLAQKGKKNDWKHNITQREARALELAGQAN
# B2: GIP55S, extended 55-amino-acid GIP isoform encoded by the ancestral A-44394131 allele (S103) (ligand)
# peptide: B1 peptide with G52S
# What was measured:
# [1] = Resistance to serum degradation: peptides incubated with human serum at 37 C, then tested for receptor activation; conditions: pooled normal human serum or pooled complement-preserved human serum, in vitro
# Description: (§1) Vector, transfection, and receptor-activation assay. […] The treated peptides were frozen at −80 C before testing with transfected cells. Receptor-activation activities were assayed based on cAMP production in transfected cells, and were performed as described44. The receptor-activation results were analyzed using the GraphPad Prism 5 package.
# [2] = test system: fasting Sprague-Dawley rats; assay: In vivo glucose suppression assay; design: species or system rat; conditions: for blood glucose after exogenous glucose: 100 nmoles/kg peptide with glucose 3.8 g/kg intraperitoneal, 1 hr after injection
# Description: The in vivo glucose suppression assay. Eight-week-old Sprague-Dawley rats were fasted overnight for 20 hours. […] Bloods were obtained via the tail vein at select time points after intraperitoneal injection of glucose with a peptide. Glucose levels in the blood were measured by an OneTouch Ultra Blood Glucose Monitoring System and OneTouch Ultra Test Strips (Johnson and Johnson).
# GIP receptor (GIPR) = target: T1, GIP receptor (GIPR) (Homo sapiens, UniProt P48546); assay: Receptor-activation assay: cAMP production in HEK293T cells expressing recombinant GIP receptor; type: cell-based; conditions: for EC50: EC50 values (-Log EC50, mean ± SEM)
# T1 construct: host or cells: HEK293T
# T1 sequence (P48546 22-466): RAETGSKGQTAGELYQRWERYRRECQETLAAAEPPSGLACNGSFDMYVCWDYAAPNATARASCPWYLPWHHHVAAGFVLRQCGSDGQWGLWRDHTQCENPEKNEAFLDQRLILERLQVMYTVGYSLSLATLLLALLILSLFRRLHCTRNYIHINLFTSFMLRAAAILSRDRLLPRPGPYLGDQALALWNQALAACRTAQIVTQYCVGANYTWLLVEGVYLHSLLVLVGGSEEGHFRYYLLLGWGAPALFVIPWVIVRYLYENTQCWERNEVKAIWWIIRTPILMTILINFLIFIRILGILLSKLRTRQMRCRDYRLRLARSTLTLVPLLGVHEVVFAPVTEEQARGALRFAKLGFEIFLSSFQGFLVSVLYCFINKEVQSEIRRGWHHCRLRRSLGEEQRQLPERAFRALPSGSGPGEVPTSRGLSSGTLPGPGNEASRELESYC
# Description: as §1
# [3] = target: T2, recombinant wild type GIP receptor (GIPR) expressed in HEK293T cells (Homo sapiens (Human), UniProt P48546); assay: cell-based or functional assay
# T2 sequence: T1 sequence (P48546 22-466)
# [4] = target: T2, recombinant wild type GIP receptor …; assay: cell-based or functional assay; remark: listed apart in the source
Molecule,"resistance to degradation by human serum, relative to GIP [1]",blood glucose after exogenous glucose [2],EC50 of cAMP production in GIPR-expressing HEK293T cells [3] [nM],-Log EC50 of cAMP production; peptide incubated 0 hr with pooled complement preserved human serum [4],-Log EC50 of cAMP production; peptide incubated 0 hr with pooled human serum [4],-Log EC50 of cAMP production; peptide incubated 3 hr with pooled complement preserved human serum [4],-Log EC50 of cAMP production; peptide incubated 3 hr with pooled human serum [4],-Log EC50 of cAMP production; peptide incubated 6 hr with pooled complement preserved human serum [4],-Log EC50 of cAMP production; peptide incubated 6 hr with pooled human serum [4],-Log EC50 of cAMP production; peptide incubated 12 hr with pooled complement preserved human serum [4],-Log EC50 of cAMP production; peptide incubated 12 hr with pooled human serum [4],other results
CC[C@H](C)[C@H](NC(=O)[C@H](CO)NC(=O)[C@H](Cc1ccc(O)cc1)NC(=O)[C@H](CC(=O)O)NC(=O)[C@H](CO)NC(=O)[C@@H](NC(=O)[C@H](Cc1ccccc1)NC(=O)[C@@H](NC(=O)CNC(=O)[C@H](CCC(=O)O)NC(=O)[C@H](C)NC(=O)[C@@H](N)Cc1ccc(O)cc1)[C@@H](C)O)[C@@H](C)CC)C(=O)N[C@@H](C)C(=O)N[C@@H](CCSC)C(=O)N[C@@H](CC(=O)O)C(=O)N[C@@H](CCCCN)C(=O)N[C@H](C(=O)N[C@@H](Cc1c[nH]cn1)C(=O)N[C@@H](CCC(N)=O)C(=O)N[C@@H](CCC(N)=O)C(=O)N[C@@H](CC(=O)O)C(=O)N[C@@H](Cc1ccccc1)C(=O)N[C@H](C(=O)N[C@@H](CC(N)=O)C(=O)N[C@@H](Cc1c[nH]c2ccccc12)C(=O)N[C@@H](CC(C)C)C(=O)N[C@@H](CC(C)C)C(=O)N[C@@H](C)C(=O)N[C@@H](CCC(N)=O)C(=O)N[C@@H](CCCCN)C(=O)NCC(=O)N[C@@H](CCCCN)C(=O)N[C@@H](CCCCN)C(=O)N[C@@H](CC(N)=O)C(=O)N[C@@H](CC(=O)O)C(=O)N[C@@H](Cc1c[nH]c2ccccc12)C(=O)N[C@@H](CCCCN)C(=O)N[C@@H](Cc1c[nH]cn1)C(=O)N[C@@H](CC(N)=O)C(=O)N[C@H](C(=O)N[C@H](C(=O)N[C@@H](CCC(N)=O)C(=O)N[C@@H](CCCNC(=N)N)C(=O)N[C@@H](CCC(=O)O)C(=O)N[C@@H](C)C(=O)N[C@@H](CCCNC(=N)N)C(=O)N[C@@H](C)C(=O)N[C@@H](CC(C)C)C(=O)N[C@@H](CCC(=O)O)C(=O)N[C@@H](CC(C)C)C(=O)N[C@@H](C)C(=O)NCC(=O)N[C@@H](CCC(N)=O)C(=O)N[C@@H](C)C(=O)N[C@@H](CC(N)=O)C(=O)O)[C@@H](C)O)[C@@H](C)CC)C(C)C)[C@@H](C)CC [GIP55G],significantly more resistant to degradation,,,,,,,,,,,
"CC[C@H](C)[C@H](NC(=O)[C@H](CO)NC(=O)[C@H](Cc1ccc(O)cc1)NC(=O)[C@H](CC(=O)O)NC(=O)[C@H](CO)NC(=O)[C@@H](NC(=O)[C@H](Cc1ccccc1)NC(=O)[C@@H](NC(=O)CNC(=O)[C@H](CCC(=O)O)NC(=O)[C@H](C)NC(=O)[C@@H](N)Cc1ccc(O)cc1)[C@@H](C)O)[C@@H](C)CC)C(=O)N[C@@H](C)C(=O)N[C@@H](CCSC)C(=O)N[C@@H](CC(=O)O)C(=O)N[C@@H](CCCCN)C(=O)N[C@H](C(=O)N[C@@H](Cc1c[nH]cn1)C(=O)N[C@@H](CCC(N)=O)C(=O)N[C@@H](CCC(N)=O)C(=O)N[C@@H](CC(=O)O)C(=O)N[C@@H](Cc1ccccc1)C(=O)N[C@H](C(=O)N[C@@H](CC(N)=O)C(=O)N[C@@H](Cc1c[nH]c2ccccc12)C(=O)N[C@@H](CC(C)C)C(=O)N[C@@H](CC(C)C)C(=O)N[C@@H](C)C(=O)N[C@@H](CCC(N)=O)C(=O)N[C@@H](CCCCN)C(=O)NCC(=O)N[C@@H](CCCCN)C(=O)N[C@@H](CCCCN)C(=O)N[C@@H](CC(N)=O)C(=O)N[C@@H](CC(=O)O)C(=O)N[C@@H](Cc1c[nH]c2ccccc12)C(=O)N[C@@H](CCCCN)C(=O)N[C@@H](Cc1c[nH]cn1)C(=O)N[C@@H](CC(N)=O)C(=O)N[C@H](C(=O)N[C@H](C(=O)N[C@@H](CCC(N)=O)C(=O)O)[C@@H](C)O)[C@@H](C)CC)C(C)C)[C@@H](C)CC [GIP, Gastric inhibitory polypeptide, reference compound]",,reduced glucose contents in the blood to basal levels,,,,,,,,,,
CC[C@H](C)[C@H](NC(=O)[C@H](CO)NC(=O)[C@H](Cc1ccc(O)cc1)NC(=O)[C@H](CC(=O)O)NC(=O)[C@H](CO)NC(=O)[C@@H](NC(=O)[C@H](Cc1ccccc1)NC(=O)[C@@H](NC(=O)CNC(=O)[C@H](CCC(=O)O)NC(=O)[C@H](C)NC(=O)[C@@H](N)Cc1ccc(O)cc1)[C@@H](C)O)[C@@H](C)CC)C(=O)N[C@@H](C)C(=O)N[C@@H](CCSC)C(=O)N[C@@H](CC(=O)O)C(=O)N[C@@H](CCCCN)C(=O)N[C@H](C(=O)N[C@@H](Cc1c[nH]cn1)C(=O)N[C@@H](CCC(N)=O)C(=O)N[C@@H](CCC(N)=O)C(=O)N[C@@H](CC(=O)O)C(=O)N[C@@H](Cc1ccccc1)C(=O)N[C@H](C(=O)N[C@@H](CC(N)=O)C(=O)N[C@@H](Cc1c[nH]c2ccccc12)C(=O)N[C@@H](CC(C)C)C(=O)N[C@@H](CC(C)C)C(=O)N[C@@H](C)C(=O)N[C@@H](CCC(N)=O)C(=O)N[C@@H](CCCCN)C(=O)NCC(=O)N[C@@H](CCCCN)C(=O)N[C@@H](CCCCN)C(=O)N[C@@H](CC(N)=O)C(=O)N[C@@H](CC(=O)O)C(=O)N[C@@H](Cc1c[nH]c2ccccc12)C(=O)N[C@@H](CCCCN)C(=O)N[C@@H](Cc1c[nH]cn1)C(=O)N[C@@H](CC(N)=O)C(=O)N[C@H](C(=O)N[C@H](C(=O)N[C@@H](CCC(N)=O)C(=O)N[C@@H](CCCNC(=N)N)C(=O)N[C@@H](CCC(=O)O)C(=O)N[C@@H](C)C(=O)N[C@@H](CCCNC(=N)N)C(=O)N[C@@H](C)C(=O)N[C@@H](CC(C)C)C(=O)N[C@@H](CCC(=O)O)C(=O)N[C@@H](CC(C)C)C(=O)N[C@@H](C)C(=O)N[C@@H](CO)C(=O)N[C@@H](CCC(N)=O)C(=O)N[C@@H](C)C(=O)N[C@@H](CC(N)=O)C(=O)O)[C@@H](C)O)[C@@H](C)CC)C(C)C)[C@@H](C)CC [GIP55S],significantly more resistant to degradation,reduced glucose contents in the blood to basal levels,,,,,,,,,,"ranking of potency (GIP receptor (GIPR); 0 hr of human serum treatment (normal or complement preserved)): GIP>GIP55G>GIP55S; ranking of potency (GIP receptor (GIPR); 6 hr after treatment with human serum (normal or complement preserved)): GIP=GIP55G=GIP55S; ranking of potency (GIP receptor (GIPR); 12 hr after treatment with human serum (normal or complement preserved)): GIP55G>GIP55S≧GIP; lower potency relative to conventional GIP (GIP receptor (GIPR); EC50 compared with GIP, no serum treatment): ~3 fold; EC50 (GIP receptor (GIPR); with pooled complement preserved human serum, 0 hours of incubation): 3.72 nM; EC50 (GIP receptor (GIPR); with pooled complement preserved human serum, 3 hours of incubation): 3.24 nM; EC50 (GIP receptor (GIPR); with pooled complement preserved human serum, 6 hours of incubation): 16.2 nM; EC50 (GIP receptor (GIPR); with pooled complement preserved human serum, 12 hours of incubation): 75.9 nM; EC50 (GIP receptor (GIPR); with pooled human serum, 0 hours of incubation): 2.75 nM; EC50 (GIP receptor (GIPR); with pooled human serum, 3 hours of incubation): 4.57 nM; EC50 (GIP receptor (GIPR); with pooled human serum, 6 hours of incubation): 18.2 nM; EC50 (GIP receptor (GIPR); with pooled human serum, 12 hours of incubation): 41.7 nM; cAMP production in GIP receptor-expressing HEK293T cells (GIP receptor (GIPR); cells treated with synthetic peptides for 12 hr, total cAMP in cell lysates): dose-dependent increases of cAMP production; suppression of hyperglycemia ([2]; compared with conventional mature GIP): suppress hyperglycemias to similar extents"
B1,,,3.2,8.51 -Log EC50,8.47 -Log EC50,8.22 -Log EC50,8.32 -Log EC50,7.88 -Log EC50,8.02 -Log EC50,7.86 -Log EC50,7.93 -Log EC50,
B2,,,2.6,8.43 -Log EC50,8.56 -Log EC50,8.49 -Log EC50,8.34 -Log EC50,7.79 -Log EC50,7.74 -Log EC50,7.12 -Log EC50,7.38 -Log EC50,

# From US20120157379A1, “Gastric Inhibitory Peptide Variants and Their Uses” (priority 2009, published 2012)
